Assay results taken from PMC9236220 (ACS Chemical Biology, 2022).
Where two headings read alike, the source gives them in different places.

Assays:
MHV-nLuc = experiment: microbe, parasite or virus in culture; type: cell-based, mouse hepatitis virus (MHV); settings: Murine coronavirus, read-out: MHV-nLuc replication IC50
SHC014-CoV-nLuc = type: cell-based, bat
SARS-CoV-2-nLuc = type: cell-based
[1] = tested on: SARS-CoV-2 spike protein uptake, Calu-3 cells; type: cell-based
kinases = settings: cited from earlier work
[2] = tested on: SARS-CoV-2 spike protein uptake, Caco-2 cells; type: cell-based
WIV1-CoV-nLuc = type: cell-based, bat
[3] = tested on: SARS-CoV-2 spike protein uptake, HEK293T-ACE2 cells; type: cell-based
SARS-CoV-2 [4] = settings: cited from earlier work
A549-ACE2 cells = settings: cited from earlier work
Vero cells = settings: cited from earlier work
SARS-CoV-2 [5] = settings: cited from earlier work; remark: listed apart in the source

Row | Compound | IC50 (MHV-nLuc) [nM] | effect on SHC014-CoV replication (SHC014-CoV-nLuc) | inhibition of SARS-CoV-2-nLuc replication (SARS-CoV-2-nLuc) | decrease in spike protein uptake [1] [%] | kinases inhibited at 1 μM (kinases) | decrease in spike protein uptake [2] [%] | effect on WIV1-CoV replication (WIV1-CoV-nLuc) | decrease in spike protein uptake [3] | effect on cell viability of DBT cells (DBT cells) | antiviral activity pIC50, SARS-CoV-2 in Vero cells (SARS-CoV-2 [4]) | IC50 (SARS-CoV-2 [4]; read-out: antiviral activity IC50, SARS-CoV-2 in Vero cells) [nM] | cell toxicity (A549-ACE2 cells) | cell toxicity (Vero cells) | inhibition of SARS-CoV-2 infection pIC50, A549-ACE2 cells (SARS-CoV-2 [5]) | IC50 (SARS-CoV-2 [5]; read-out: inhibition of SARS-CoV-2 infection IC50, A549-ACE2 cells) [nM]
1 | CC(=O)Nc1ccc2ccn(-c3cc(NC4CCC4)n4ncc(C#N)c4n3)c2c1 [Compound 17] | < 1000 |  |  |  |  |  |  |  |  |  |  |  |  |  | 
2 | CCC(=O)Nc1cc(Nc2cc(NC3CC3)n3ncc(C#N)c3n2)ccc1C [SGC-CK2-1] | 210 | dose-dependent decreases in viral replication | inhibition of viral replication was observed | > 75 | 3 | > 75 | dose-dependent decreases in viral replication | 70–80% |  |  |  |  |  |  | 
3 | O=C(O)c1ccc2c(c1)nc(Nc1cccc(Cl)c1)c1ccncc12 [silmitasertib] | 630 |  |  |  |  |  |  |  | no effect on cell viability | 5.6 | 2500 | cell toxicity at micromolar doses | cell toxicity at micromolar doses | < 5 | > 10000
